Source: patent US20050214744A1, “New mutational profiles in hiv-1 reverse transcriptase correlated with phenotypic drug resistance” (priority 2002, published 2005)

Legend:
[1] = tested on: SM26-derived strain K103N, Y181C, L100I, V189V/I, E194G/E, R356R/K; experiment: Antiviral activity against strain selected with compound 1 0.200 μM (day 9), acutely infected MT4 cells; assay type: cell-based, HIV-1; conditions: SM26 selected with Compound 1 0.200 μM, breakthrough day 9, additional L100I; for EC50: Human immunodeficiency virus 1, MT4, 216 h, unit inferred, read-out: Median EC50
Description: (§1) Determination of the antiviral activity of a compound was done as described in Pauwels R. et al. (J Virol Methods 1988; 20(4):309-21). Various concentrations of the test compounds were brought into each well of a flat-bottom microtiter plate. Subsequently, HIV and MT4 cells were added to a final concentration of 200-250 50% cell culture infectious doses (CCID50)/well and 30,000 cells/well, respectively. After 5 days of incubation (37° C., 5% CO2), the cytopathic effect of the replicating virus was determined by the tetrazolium colorimetric MTT method. The dose protecting 50% of the cells from virus cytopathic effect was defined as the EC50, while the dose achieving 90% protection was defined as the EC90. Reporter gene assay The reporter gene assay used MT4-LTR-EGFP cells. Upon infection by HIV-1, the expression of the viral tat product increases transcription from the HIV-1 LTR promoter, leading to high-level expression of the reporter gene product. The assay procedure was similar to the CPE assay, except for the end reading of the assay, which was performed on day 3 by measuring the relative fluorescence of treated cultures and comparing this with the relative fluorescence of untreated cultures. The EC50 or the EC90 of a compound was defined as the concentration that inhibited the relative fluorescence by 50% or 90% respectively.
(§2) Cells are infected at a high MOI (such as 1-50 CCID50/cell), corresponding to >10^9 viral RNA copies/ml. These experiments have been designed to mimic the quasi-species variability that is observed in HIV infected individuals where 10^9 to 10^10 new viruses are produced daily with a mutation rate of 10^−4 to 10^−5. The infected MT4-LTR-EGFP cells are treated with inhibitors at 40, 200 nM, 1 μM and higher for a maximum of 30 days. The cultures are sub-cultivated and scored on virus-induced fluorescence and cytopathicity every 3-4 days. If full virus breakthrough (100% CPE) is observed the supernatants was collected and stored (new virus strain). If no full CPE was observed the cells were sub-cultivated and further grown in the presence of the same concentration compound till full virus breakthrough, with a maximum of 30 days. From the emerging virus populations a virus stock was grown in the absence of compounds and titrated. The sensitivities of the isolated strains to HIV-1 RT inhibitors were determined and the strains were genotyped.
(§3) In vitro drug selection experiments starting from wild-type HIV-1/LAI under pressure of compound 1 have been performed.

[2] = tested on: SM26 (K103N, Y181C); experiment: In vitro selection of resistant strains at high MOI (virus breakthrough); assay type: cell-based, HIV-1
[3] = tested on: HIV-1/LAI; experiment: Antiviral activity against wild-type strain in acutely infected MT4 cells; assay type: cell-based; conditions: for EC50: Human immunodeficiency virus 1, table prints no unit (EC50 in μM), read-out: Median EC50
Description: as §1, §2, §3

[4] = tested on: SM26-derived strain K103N, Y181C, L100I, V189V/I, E194G/E; experiment: Antiviral activity against strain selected with compound 1 0.200 μM (day 7), acutely infected MT4 cells; assay type: cell-based, HIV-1; conditions: SM26 selected with Compound 1 0.200 μM, breakthrough day 7, additional L100I; for EC50: Human immunodeficiency virus 1, MT4, 168 h, unit inferred, read-out: Median EC50
Description: as §1, §2, §3

[5] = tested on: SM26-derived strain K103N, Y181C, L100I, V189I, E194G; experiment: Antiviral activity against strain selected with compound 1 1.000 μM (day 13), acutely infected MT4 cells; assay type: cell-based, HIV-1; conditions: SM26 selected with Compound 1 1.000 μM, breakthrough day 13, additional L100I; for EC50: Human immunodeficiency virus 1, MT4, 312 h, unit inferred, read-out: Median EC50
Description: as §1, §2, §3

[6] = tested on: SM26 (K103N, Y181C); experiment: Antiviral activity against starting strain SM26 in acutely infected MT4 cells; assay type: cell-based, HIV-1; conditions: for EC50: Human immunodeficiency virus 1, no selecting compound, unit inferred, read-out: Median EC50; for FC (fold change in resistance, ratio of EC50 vs wild type): no selecting compound
Description: as §1, §2, §3

[7] = tested on: SM26-derived strain K103N, Y181C, L100I, E194G; experiment: Antiviral activity against strain selected with compound 1 1.000 μM (day 11), acutely infected MT4 cells; assay type: cell-based, HIV-1; conditions: SM26 selected with Compound 1 1.000 μM, breakthrough day 11, additional L100I; for EC50: Human immunodeficiency virus 1, MT4, 264 h, unit inferred, read-out: Median EC50
Description: as §1, §2, §3

[8] = tested on: SM26-derived strain K103N, Y181C, E194E/K; experiment: Antiviral activity against strain selected with compound 1 0.040 μM, acutely infected MT4 cells; assay type: cell-based, HIV-1; conditions: SM26 selected with Compound 1 0.040 μM, breakthrough day 7, additional E194E/K; for EC50: Human immunodeficiency virus 1, MT4, 168 h, unit inferred, read-out: Median EC50
Description: as §1, §2, §3

SMILES | EC50 [1] | FC (fold change in resistance, ratio of EC50 vs wild type) [1] | Days to breakthrough ([2]; 0.040 μM, selected E194E/K) | Days to breakthrough ([2]; 0.200 μM (first culture), selected L100I, V189V/I, E194G/E) | Days to breakthrough ([2]; 0.200 μM (second culture), selected L100I, V189V/I, E194G/E, R356R/K) | Days to breakthrough ([2]; 1.000 μM (first culture), selected L100I, E194G) | Days to breakthrough ([2]; 1.000 μM (second culture), selected L100I, V189I, E194G) | FC (fold change in resistance, ratio of EC50 vs wild type) [3] | EC50 [3] | EC50 [4] | FC (fold change in resistance, ratio of EC50 vs wild type) [4] | EC50 [5] | FC (fold change in resistance, ratio of EC50 vs wild type) [5] | EC50 [6] | FC (fold change in resistance, ratio of EC50 vs wild type) [6] | EC50 [7] | FC (fold change in resistance, ratio of EC50 vs wild type) [7] | EC50 [8] | FC (fold change in resistance, ratio of EC50 vs wild type) [8]
Cc1cc(C#N)cc(C)c1Oc1nc(Nc2ccc(C#N)cc2)nc(N)c1Br [Compound 1, Benzonitrile, 4-[[6-amino-5-bromo-2-[(4-cyanophenyl)-amino]-4-pyrimidinyl]oxy]-3,5-dimethyl-] | 26.8 nM | 19 | day 7 | day 7 | day 9 | day 11 | day 13 | 1 | 0.0014 µM | 149 nM | 106 | 261 nM | 187 | 5 nM | 4 | 668 nM | 477 | 7.8 nM | 6
O=C1Nc2ccc(Cl)cc2[C@@](C#CC2CC2)(C(F)(F)F)O1 [Efavirenz] | 56.5 nM | 57 | – | – | – | – | – | 1 | 0.001 µM | 2750 nM | 2.747 | 3600 nM | 3.595 | 36.7 nM | 37 | 6730 nM | – | 32.7 nM | 33
Cc1ccnc2c1NC(=O)c1cccnc1N2C1CC1 [Nevirapine] | > 10000 nM | >131 | – | – | – | – | – | 1 | 0.0763 µM | > 10000 nM | >131 | > 10000 nM | >131 | > 10000 nM | >131 | > 10000 nM | >131 | > 10000 nM | >131
